Holding throughout (format): toxicity, cell-based, Cricetulus griseus
What all share (conditions): chinese hamster, 168 h, time 7 day

The test system of data set [1] is CHO. In words: Cytotoxicity against CHO cells expressing AGT G41R variant and glycolate oxidase assessed as reduction in cell viability at 50 uM measured after 7 days by crystal violet staining assay.
Data set [2] deals with CHO. In words: Cytotoxicity against CHO cells expressing AGT and glycolate oxidase assessed as reduction in cell viability at 50 uM measured after 7 days by crystal violet staining assay.
The test system of data set [3] is CHO. As to the kind of experiment: Cytotoxicity against CHO cells expressing AGT G41R variant and glycolate oxidase assessed reduction in cell viability at 50 uM measured after 7 days in presence of pyridoxine by crystal violet staining assay.

For `Cl.NOCc1ccc(F)cc1F`, the Activity entry in data set [1] and in data set [2] was “Non-Toxic” each time.

With `COc1c(C)cnc(CON)c1C`, the Activity result in data set [3], in data set [1] and in data set [2] was “Non-Toxic” each time.

`NOCc1cc2ccccc2s1`: in data set [2], the Activity result is listed as “Non-Toxic”.

On to `CN1CCN(c2cccc(CON)c2)CC1`, for which the Activity result in data set [3], in data set [1] and in data set [2] was “Toxic” in each case.

On to `NOCc1cccc(-c2ccc(C(F)(F)F)cc2)c1`, for which the Activity entry in data set [3], in data set [1] and in data set [2] was “Non-Toxic” in each case.

For the origin of these results see ChEMBL document CHEMBL5143737, “Identification of Human Alanine-Glyoxylate Aminotransferase Ligands as Pharmacological Chaperones for Variants Associated with Primary Hyperoxaluria Type 1” (J Med Chem, 2022).
